± gives the expanded uncertainty stated by the source.
Assays:
[1] = DTA
[2] = Molar enthalpy of transition or fusion; conditions: DSC
[3] = molar heat capacity at constant pressure; conditions: 101.33 kPa, Small sample (50 mg) DSC

SMILES: [BH4-].[Li+] [lithium tetrahydroborate]
- Triple point temperature ([1]; Crystal 1): 553 ± 1 K
- Triple point temperature ([1]; Crystal 2): 386.6 ± 0.5 K
- Molar enthalpy of transition or fusion ([2]; Crystal 1): 1.96 ± 0.153 kcal/mol
- Molar enthalpy of transition or fusion ([2]; Crystal 2): 1.21 ± 0.0574 kcal/mol
- molar heat capacity at constant pressure ([3]; 298 K, Crystal 2): 81.51 ± 4.2 J/K/mol
- molar heat capacity at constant pressure ([3]; 310 K, Crystal 2): 84.51 ± 4.4 J/K/mol
- molar heat capacity at constant pressure ([3]; 320 K, Crystal 2): 87.33 ± 4.5 J/K/mol
- molar heat capacity at constant pressure ([3]; 330 K, Crystal 2): 89.53 ± 4.7 J/K/mol
- molar heat capacity at constant pressure ([3]; 340 K, Crystal 2): 91.21 ± 4.7 J/K/mol
- molar heat capacity at constant pressure ([3]; 350 K, Crystal 2): 92.47 ± 4.8 J/K/mol
- molar heat capacity at constant pressure ([3]; 360 K, Crystal 2): 95.46 ± 5 J/K/mol
- molar heat capacity at constant pressure ([3]; 370 K, Crystal 2): 101.2 ± 5.3 J/K/mol
- molar heat capacity at constant pressure ([3]; 380 K, Crystal 2): 106.02 ± 5.5 J/K/mol
- molar heat capacity at constant pressure ([3]; 410 K, Crystal 1): 91.06 ± 4.7 J/K/mol
- molar heat capacity at constant pressure ([3]; 420 K, Crystal 1): 91.83 ± 4.8 J/K/mol
- molar heat capacity at constant pressure ([3]; 430 K, Crystal 1): 93.09 ± 4.8 J/K/mol
- molar heat capacity at constant pressure ([3]; 440 K, Crystal 1): 94.12 ± 4.9 J/K/mol
- molar heat capacity at constant pressure ([3]; 450 K, Crystal 1): 95.43 ± 5 J/K/mol
- molar heat capacity at constant pressure ([3]; 460 K, Crystal 1): 96.7 ± 5 J/K/mol
- molar heat capacity at constant pressure ([3]; 470 K, Crystal 1): 97.95 ± 5.1 J/K/mol
- molar heat capacity at constant pressure ([3]; 480 K, Crystal 1): 99.14 ± 5.2 J/K/mol
- molar heat capacity at constant pressure ([3]; 490 K, Crystal 1): 100.69 ± 5.2 J/K/mol
- molar heat capacity at constant pressure ([3]; 500 K, Crystal 1): 101.9 ± 5.3 J/K/mol
- molar heat capacity at constant pressure ([3]; 510 K, Crystal 1): 103.3 ± 5.4 J/K/mol
- molar heat capacity at constant pressure ([3]; 520 K, Crystal 1): 104.78 ± 5.4 J/K/mol
